From PMC5487955, “Microarray Selection of Cooperative Peptides for Modulating Enzyme Activities” (Microarrays, 2017)
Values joined by “and” are separate entries in the source; they are usually repeats but may differ in a detail not shown here. Identical values can stand only once. Where no end group is shown, it is not given here.

Columns and labels:
[1] = tested on: inhibited PEP-1–β-Gal complex; experiment: Recovery of PEP-1 inhibited enzyme activity; type: biochemical; settings: 320 μM NEG added, incubated another 20 min; 1 nM β-Gal preincubated with PEP-1 for 20 min
Method: (§1) Solution-based enzyme assays were performed on SpectraMax M5 96 well plate readers (Molecular Device, Sunnyvale, CA, USA) as described previously. Simply explained, peptides were first incubated with enzyme for 20 min, and then the substrate solution was added into the wells to measure the enzyme activity. At least three replicates per peptide were included. The β-gal-catalyzed hydrolysis of RBG was fluorescently monitored at 590 nm (resorufin) with the excitation at 540 nm. For a typical assay, ~0.3 nM or 1 nM β-Gal was incubated with peptides and 100 μM RBG substrate in pH 7.4, 10 mM potassium phosphate buffer with 100 μM MgCl2 at 25 °C. The reaction rate was determined by the initial velocity of the linear reaction. The percentage of reduced/inhibited enzyme activity was calculated as below: Percentage of reduced activity=(1−Inhibited activity/Noninhibited activity)×100%
For recovery of PEP-1 inhibited enzyme activity, 1 nM β-Gal was first incubated with PEP-1 for 20 min for inhibiting activity, and then NEG peptide was added to the solution and incubated for another 20 min before the activity assay.

[2] = target: T1, β-galactosidase (β-Gal) (Escherichia coli, UniProt P00722); settings: negative control selection
Excerpt: Microarrays of 10,000 20-mer peptides were produced by Arizona State University as previously reported [14, 17]. […] Each polypeptide was 20 residues in length, with 17 positions randomly chosen from a set of 19 amino acids (excluding cysteine). The C-terminal 3 positions of each peptide was a glycine–serine–cysteine (GSC) linker, which was used for conjugating peptides to amino-silane surfaces via a maleimide linker, sulfosuccinimidyl 4-(N-maleimidomethyl)cyclohexane-1-carboxylate (Sulfo-SMCC; Pierce, Rockford, IL, USA). The array printing was performed by using a Telechem Nanoprint60 (Arrayit, Sunnyvale, CA, USA) hat spotted approximately 500 pL of 1 mg/mL peptide per feature on glass slides with 48 Telechem series SMP2-style 946 titanium pins (Arrayit).
Binding of enzymes on the microarray was performed as previously described [17, 18]. […] Then, the array was incubated with a solution containing 5 nM Alexa 647-labeled β-Gal or PEP-1–β-Gal complex for two hours, allowing the enzyme to bind with peptides on the array surface. After washing off unbound enzymes, the array was read by a standard array reader (PerkinElmer, Waltham, MA, USA) with color scanning using 647 nm laser lines.

[3] = target: T1, β-galactosidase (β-Gal); experiment: biochemical; parameters: purchased Sigma (St. Louis, MO, USA); settings: for reduction of enzyme activity, combination with PEP-1: 100 μM NEW peptide + 2 μM PEP-1; for reduction of enzyme activity, NEW peptide alone: 100 μM peptide by itself, pH 7.4 10 mM potassium phosphate, 100 μM MgCl2, 25 °C, at least three replicates
Method: as §1, with “activity)×100% […]” for “activity)×100%”
Figure S1. Titration of IC 50 for PEP-1. The IC 50 of peptide inhibition is measured at a substrate concentration of 100 μM RBG (resorufin β -D-galactopyranoside) and β-Gal concentration of 150 μg/L, 25 °C. All tests included three replicates. Error bar: range of data.
The IC50 of each inhibitor was determined by fitting the concentration vs. inhibition curve to the function ‘Fit LogIC50’ as defined in the program GraphPad Prism 7 using the fitting equation “Y=Bottom+(Top-Bottom)/(1+10^(X-LogIC50))”. The “Bottom” term was constrained to 1, which represents the maximal inhibition of 100%. The “Top” term was constrained to 0, which represents the minimal inhibition of 0%.
The enzyme inhibition was also quantitatively characterized using the inhibition percentage that was calculated using the following equation:
Inhibition Percentage = (Activity uninhibited – Activity inhibited)/ Activity uninhibited × 100%
(1 picture or pasted object on this page, not shown here)

[4] = tested on: crosslinked PEP-1–β-Gal complex; experiment: Peptide microarray binding of crosslinked PEP-1–β-Gal complex; settings: negative control selection
Method: Firstly, 20 μM PEP-1 (sequence of “RVFKRKRWLHVSRYYFGSC”) was incubated with 30 nM β-Gal for 20 min, and then 0.5% formaldehyde was added to the peptide/enzyme mixture. It was then incubated for another 20 min in order to crosslink the peptide with enzyme. The entire mixture was then diluted by 100 × in phosphate buffer to bring the overall peptide concentration as low as 200 nM.

[5] = 100 μM RBG, pH 7.4, 25 °C, 20 min preincubation
[6] = 100 μM RBG, 20 min preincubation

T1 sequence (P00722 2-1024): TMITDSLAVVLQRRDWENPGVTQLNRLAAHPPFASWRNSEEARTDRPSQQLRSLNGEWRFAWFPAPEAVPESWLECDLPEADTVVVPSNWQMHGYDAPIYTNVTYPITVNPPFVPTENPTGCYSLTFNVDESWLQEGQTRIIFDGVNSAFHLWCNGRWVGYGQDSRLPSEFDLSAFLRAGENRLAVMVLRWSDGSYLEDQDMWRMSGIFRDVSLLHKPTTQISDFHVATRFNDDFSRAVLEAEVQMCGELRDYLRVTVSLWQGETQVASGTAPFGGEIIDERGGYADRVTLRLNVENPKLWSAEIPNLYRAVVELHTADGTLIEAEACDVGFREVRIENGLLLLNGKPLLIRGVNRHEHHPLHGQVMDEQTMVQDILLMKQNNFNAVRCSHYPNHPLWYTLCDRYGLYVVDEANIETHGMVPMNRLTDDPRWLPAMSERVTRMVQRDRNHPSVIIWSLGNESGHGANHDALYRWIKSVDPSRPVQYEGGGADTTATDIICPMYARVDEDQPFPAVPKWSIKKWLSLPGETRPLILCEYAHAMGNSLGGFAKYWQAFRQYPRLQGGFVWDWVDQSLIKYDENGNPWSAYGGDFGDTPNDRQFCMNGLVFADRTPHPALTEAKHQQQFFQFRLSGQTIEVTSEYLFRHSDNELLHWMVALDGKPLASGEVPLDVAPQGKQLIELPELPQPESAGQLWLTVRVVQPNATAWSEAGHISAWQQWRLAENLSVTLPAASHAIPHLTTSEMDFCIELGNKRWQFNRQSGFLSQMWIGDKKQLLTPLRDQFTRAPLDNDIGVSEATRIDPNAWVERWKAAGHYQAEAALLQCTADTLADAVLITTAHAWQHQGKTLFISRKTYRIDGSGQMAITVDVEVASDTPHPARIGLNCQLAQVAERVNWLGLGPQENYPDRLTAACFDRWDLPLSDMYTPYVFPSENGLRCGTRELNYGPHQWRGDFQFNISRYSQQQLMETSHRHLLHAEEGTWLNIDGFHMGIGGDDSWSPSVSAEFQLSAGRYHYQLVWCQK

ESVPTDLPMDTMEGKNWGSC [NEG, negatively-charged negative control peptide]
activity of inhibited PEP-1–β-Gal complex, % of uninhibited enzyme [1]: ~45%
binding to β-Gal on microarray (in words) [2]: neither bound to β-Gal
inhibition of β-Gal activity, NEG combined with PEP-1 ([3]; 10 μM NEG + 2 μM PEP-1): 24%
inhibition of β-Gal, NEG combined with PEP-1 (in words) ([3]; 100 μM NEG + 2 μM PEP-1): almost lost the ability to inhibit β-Gal
binding to crosslinked PEP-1–β-gal complex on microarray (in words) [4]: did not show strong binding

GVSHLHWIKMLNETTVMGSC [NEW-1]
reduction of enzyme activity, combination with PEP-1 [3, 5]: ~ 70%
reduction of enzyme activity, NEW peptide alone [3, 6]: less than 10%

HISPQHMMAYSPKAFDYGSC [NEW-2]
reduction of enzyme activity, combination with PEP-1 [3, 5]: ~ 73%
reduction of enzyme activity, NEW peptide alone [3, 6]: ~ 12%

MHNHAFNDNHGRGPTAWGSC [NEW-4]
reduction of enzyme activity, combination with PEP-1 [3, 5]: 91%
reduction of enzyme activity, NEW peptide alone [3, 6]: ~ 26%

RVFKRKRWLHVSRYYFGSC [PEP-1]
IC50 [3]: ~1600 nM
reduction of enzyme activity, PEP-1 by itself ([3]; 2 μM PEP-1 alone, 100 μM RBG, pH 7.4, 25 °C, 20 min preincubation): ~ 57% and 57%

YDTLHRNRQMMDWQFEPGSC [NEW-3]
reduction of enzyme activity, combination with PEP-1 [3, 5]: ~ 86%
reduction of enzyme activity, NEW peptide alone [3, 6]: ~ 19%
